The target of data set [1] is mGlu1 receptors (Rattus norvegicus, UniProt P23385). Briefly: PI hydrolysis. In kind it is cell-based. To be noted: for effect of antagonist on PI hydrolysis stimulated by quisqualate, DHPG and ACPD: agonists 100 μM, JNJ16259685 300 μM, CPCCOEt 200 μM, MPEP 10 μM; for PI hydrolysis Emax, % glu: efficacy as percentage of glutamate efficacy, mean +/- 95% confidence interval; for agonist bias between PI hydrolysis and neuroprotection: from Emax values of both responses (Figure 7).
Chain of mGlu1 receptors (P23385 19-1199): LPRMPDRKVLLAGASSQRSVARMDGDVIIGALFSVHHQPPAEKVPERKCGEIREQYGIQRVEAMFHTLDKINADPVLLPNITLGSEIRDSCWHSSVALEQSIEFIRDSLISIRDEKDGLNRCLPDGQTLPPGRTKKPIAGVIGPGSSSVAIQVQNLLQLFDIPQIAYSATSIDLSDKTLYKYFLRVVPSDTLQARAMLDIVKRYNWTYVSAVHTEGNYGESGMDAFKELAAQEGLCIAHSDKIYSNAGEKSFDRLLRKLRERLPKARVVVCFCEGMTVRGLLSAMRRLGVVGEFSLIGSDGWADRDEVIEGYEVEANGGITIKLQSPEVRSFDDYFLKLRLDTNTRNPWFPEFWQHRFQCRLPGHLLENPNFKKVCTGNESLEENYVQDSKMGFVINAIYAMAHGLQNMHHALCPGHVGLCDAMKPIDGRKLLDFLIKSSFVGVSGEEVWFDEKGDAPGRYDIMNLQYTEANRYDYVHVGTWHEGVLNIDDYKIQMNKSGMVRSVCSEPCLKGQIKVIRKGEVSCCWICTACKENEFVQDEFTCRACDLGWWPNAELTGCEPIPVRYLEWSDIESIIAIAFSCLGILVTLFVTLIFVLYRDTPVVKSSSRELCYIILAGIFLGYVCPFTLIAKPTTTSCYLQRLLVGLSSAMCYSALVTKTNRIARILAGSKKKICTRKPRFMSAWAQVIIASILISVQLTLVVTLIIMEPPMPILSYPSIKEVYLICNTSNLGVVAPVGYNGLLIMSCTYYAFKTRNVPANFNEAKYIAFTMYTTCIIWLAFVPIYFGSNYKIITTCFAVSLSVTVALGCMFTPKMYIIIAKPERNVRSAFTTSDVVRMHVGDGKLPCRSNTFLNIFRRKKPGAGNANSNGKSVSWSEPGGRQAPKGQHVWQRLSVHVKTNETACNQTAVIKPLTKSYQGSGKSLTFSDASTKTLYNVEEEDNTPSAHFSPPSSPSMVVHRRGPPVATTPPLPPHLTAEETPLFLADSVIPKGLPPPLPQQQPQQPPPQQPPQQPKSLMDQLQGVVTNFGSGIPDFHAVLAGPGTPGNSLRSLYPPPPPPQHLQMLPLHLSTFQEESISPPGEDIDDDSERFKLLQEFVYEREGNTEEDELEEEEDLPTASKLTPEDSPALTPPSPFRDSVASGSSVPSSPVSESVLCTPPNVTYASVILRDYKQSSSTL

Data set [2] deals with cerebellar granule cells. The data set is described as follows: Cell viability. The note with it: for effect of agonist on viability of granule cells in K5: K5, 16 hours, MTT; for maximum effect on granule cell viability: percent of viability in K25 cultures, K5 media, 16 hours; for IC50: read-out: IC50 for inhibition of glutamate neuroprotection, 1 mM glutamate in K5; for effect of antagonist on NMDA-induced increase in granule cell viability: 1 mM NMDA in K5, MK801 1 μM, JNJ16259685 300 μM.

Data set [3] deals with mGlu1 receptor-expressing CHO cells. The note with it: ref Emery et al., 2012, cited from earlier work; for ERK phosphorylation or protection: transfected CHO cells; for protection from serum starvation: mGlu1 receptor-expressing CHO cells.
Data set [4] deals with mGlu1 receptor. To be noted: mGlu1 receptor-expressing CHO cells; ref Emery et al., 2012; cited from earlier work.
Setting [5] is: read-out: PI hydrolysis EC50, mean (95% confidence interval).

Entries after “also recorded” stand apart in the source; their conditions may differ. Read-outs that look alike come from different tables or passages of the source.

For the compound `Cc1cccc(C#Cc2ccccc2)n1` [MPEP], the “effect of antagonist on PI hydrolysis stimulated by quisqualate, DHPG and ACPD” value in data set [1] was “no effect”.

`N[C@@H](CCC(=O)O)C(=O)O` [Glutamate, glutamate]: in data set [2], the “effect of agonist on viability of granule cells in K5” value (“effect of agonist” for short) is “prevented” and the “maximum effect on granule cell viability” value came to 65%.

As for “7-(Hydroxyimino)cyclopropa[b]chromen-1a-carboxylate ethyl ester [CPCCOEt]”, in data set [2], the IC50 (usually the concentration that gives 50% inhibition) amounted to 123 µM.

`N[C@@H](Cn1oc(=O)[nH]c1=O)C(=O)O` [Quisqualate, quisqualate]: the “ERK phosphorylation or protection” value in data set [3] was “do not stimulate”. The “effect of agonist” value in data set [2] is “not significantly increased; also recorded: no efficacy”. Besides, in data set [1], the “agonist type for PI hydrolysis compared to glutamate” value (“agonist type … compared to glutamate” for short) was “full agonist”; the “PI hydrolysis at 100 μM agonist compared to Locke's media only” value was “significant increase”; the “PI hydrolysis Emax, % glu” value was 109 ± 7.8 % glu; the “agonist bias between PI hydrolysis and neuroprotection” value is “completely biased towards PI hydrolysis”.

In the case of `NC(C(=O)O)c1cc(O)cc(O)c1` (stereo not drawn) [DHPG, 3,5-dihydroxyphenylglycine], the “ERK phosphorylation or protection” value in data set [3] was “do not stimulate”. Moreover, in data set [2], the “effect of agonist” value is “not significantly increased”. For the same compound, in data set [1], the EC50 (in general, the concentration that produces a half-maximal response) was found to be 23 µM; the “agonist type … compared to glutamate” value is “partial agonists”; the “PI hydrolysis at 100 μM agonist compared to Locke's media only” value is “significant increase”; the “PI hydrolysis Emax, % glu” value turned out to be 69 ± 3.7 % glu. In addition, the “agonist bias between PI hydrolysis and neuroprotection” value in data set [1] is recorded as “completely biased towards PI hydrolysis”.

On to `N[C@@H](CC(=O)O)C(=O)O` [Aspartate, aspartate], for which the “effect of agonist” value in data set [2] is recorded as “prevented”. In data set [1], the EC50 was found to be 19 µM; the “PI hydrolysis Emax, % glu” value is listed as 103 ± 7.8 % glu; the “agonist bias between PI hydrolysis and neuroprotection” value is reported as “balanced agonists”.

`C[C@]12N[C@H](Cc3ccccc31)c1ccccc12` [MK801]: the “effect of antagonist on NMDA-induced increase in granule cell viability” value in data set [2] is reported as “significantly inhibited”.

Regarding `N[C@@H](CCS(=O)(=O)O)C(=O)O` [Homocysteic acid], the “effect of agonist” value in data set [2] is on record as “prevented”. In addition, the “PI hydrolysis Emax, % glu” value in data set [1] was 84 ± 7.4 % glu. Also, the EC50 in data set [1] (setting [5]) stood at 29 µM.

Turning to `N[C@@H](CS(=O)O)C(=O)O` [Cysteine sulfinic acid], in data set [2], the “effect of agonist” value is “prevented”. Also, the “PI hydrolysis Emax, % glu” value in data set [1] is given as 82 ± 10 % glu. Also, the EC50 in data set [1] (setting [5]) turned out to be 29 µM.

In the case of `COC1CCC(C(=O)c2ccc3nc4c(cc3c2)CCCO4)CC1` (stereo not drawn) [JNJ16259685], in data set [2], the “effect of antagonist on NMDA-induced increase in granule cell viability” value is listed as “blocked” and the IC50 stood at 19.8 µM. The “effect of antagonist on PI hydrolysis stimulated by quisqualate, DHPG and ACPD” value in data set [1] is “significantly decreased”.

For the compound `CN[C@H](CC(=O)O)C(=O)O` [NMDA, N-methyl-D-aspartate], the “maximum effect on granule cell viability” value in data set [2] was determined as 73%.

In the case of `N[C@@H](CS(=O)(=O)O)C(=O)O` [Cysteic acid], the “effect of agonist” value in data set [2] is “prevented”. Also, in data set [1], the “PI hydrolysis Emax, % glu” value is on record as 87 ± 4.2 % glu. Besides, the EC50 in data set [1] (setting [5]) stood at 22 µM.

As to `O=C(O)CCC(=O)O` [succinic acid], the “protection from serum starvation” value in data set [3] is on record as “able to protect”. Also, the “efficacy for PI hydrolysis” value in data set [4] was “no efficacy”.

As to `N[C@@]1(C(=O)O)CC[C@@H](C(=O)O)C1` [ACPD, (1S,3R)-1-aminocyclopentane-1,3-dicarboxylic acid], in data set [2], the “effect of agonist” value is “not significantly increased” and the “maximum effect on granule cell viability” value was determined as 49 ± 5%. In data set [1], the “agonist type … compared to glutamate” value is “partial agonists”; the “PI hydrolysis at 100 μM agonist compared to Locke's media only” value is recorded as “significant increase”; the “PI hydrolysis Emax, % glu” value is listed as 66 ± 1.4 % glu; the “agonist bias between PI hydrolysis and neuroprotection” value is given as “completely biased towards PI hydrolysis”.

For `O=C(O)CCCC(=O)O` [glutaric acid], the “protection from serum starvation” value in data set [3] is “able to protect”. Moreover, the “efficacy for PI hydrolysis” value in data set [4] is listed as “no efficacy”.

The values are drawn from PMC4387075 (Neuropharmacology, 2015).
